These are literature values, as cited in US20240033213A1, “TOPICAL PHARMACEUTICAL FORMULATION AND METHOD FOR THE TREATMENT OF SYNDROMES ASSOCIATED WITH CHRONIC PELVIC PAIN” (CURALEAF INTERNATIONAL LIMITED, priority 2020, published 2024).

The target in this data set is T1, TRPV1 receptor (Rattus norvegicus, UniProt O35433).
T1 construct: CBD Effects on TRPV1 Signaling Pathways in Cultured DRG Neurons; host or cells: cultured DRG sensory neurons (endogenous TRPV1)
The following applies: sensory neurons in an animal model, in vitro.

Each structure is given as a SMILES string.

T1 sequence (O35433 whole entry): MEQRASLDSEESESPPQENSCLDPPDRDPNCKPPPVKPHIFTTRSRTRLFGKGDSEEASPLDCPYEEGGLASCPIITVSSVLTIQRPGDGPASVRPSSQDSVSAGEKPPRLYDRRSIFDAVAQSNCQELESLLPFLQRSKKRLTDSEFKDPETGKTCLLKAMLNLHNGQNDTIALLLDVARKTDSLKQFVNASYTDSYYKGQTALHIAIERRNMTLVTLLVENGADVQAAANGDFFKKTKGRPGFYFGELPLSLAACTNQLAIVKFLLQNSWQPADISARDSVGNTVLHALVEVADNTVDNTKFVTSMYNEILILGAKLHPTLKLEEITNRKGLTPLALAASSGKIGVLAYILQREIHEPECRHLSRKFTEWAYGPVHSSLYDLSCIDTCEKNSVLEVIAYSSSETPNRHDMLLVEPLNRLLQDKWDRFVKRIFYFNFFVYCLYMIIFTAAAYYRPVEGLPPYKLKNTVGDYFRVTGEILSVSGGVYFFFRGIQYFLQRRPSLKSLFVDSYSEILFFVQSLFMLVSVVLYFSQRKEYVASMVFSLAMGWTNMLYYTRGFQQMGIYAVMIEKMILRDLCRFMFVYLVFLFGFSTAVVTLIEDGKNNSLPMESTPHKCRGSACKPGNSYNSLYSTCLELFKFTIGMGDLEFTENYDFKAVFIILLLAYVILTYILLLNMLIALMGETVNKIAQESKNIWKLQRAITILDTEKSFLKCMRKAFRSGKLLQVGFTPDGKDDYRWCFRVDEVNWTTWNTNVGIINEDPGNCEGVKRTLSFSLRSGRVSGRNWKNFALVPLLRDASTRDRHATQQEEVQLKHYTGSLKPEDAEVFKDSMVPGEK

For the compound `C=C(C)[C@@H]1CCC(C)=C[C@H]1c1c(O)cc(CCCCC)cc1O` [cannabidiol], the “Effect on neuronal hypersensitivity following TRPV1 activation” value is “inhibit neuronal hypersensitivity following TRPV1 activation”.
